Measurements published in ChEMBL document CHEMBL3120141, “Discovery of (1R,6S)-5-[4-(1-cyclobutyl-piperidin-4-yloxy)-phenyl]-3,4-diaza-bicyclo[4.1.0]hept-4-en-2-one (R,S-4a): histamine H(3) receptor inverse agonist demonstrating potent cognitive enhancing and wake promoting activity” (Bioorg Med Chem Lett, 2014).

How the values were obtained:
[1] = species: Homo sapiens; assay: Selectivity ratio for human histamine H3 receptor over human histamine H2 receptor
[2] = target: Histamine H3 receptor (Rattus norvegicus, UniProt Q9QYN8); assay: Displacement of [3H]NAMH from rat histamine H3 receptor transfected in CHO cells; format: cell-based
[3] = species: Homo sapiens; assay: Selectivity ratio for human histamine H3 receptor over human histamine H1 receptor
[4] = target: T1, Histamine H3 receptor (Homo sapiens, UniProt Q9Y5N1); assay: Displacement of [3H]NAMH from human histamine H3 receptor transfected in CHO cells; format: cell-based
[5] = species: Homo sapiens; assay: Selectivity ratio for human histamine H3 receptor over human histamine H4 receptor
[6] = target: Histamine H2 receptor (Homo sapiens) (UniProt P25021); assay: Inhibition of human histamine H2 receptor at 10 uM
[7] = Ratio of drug uptake in brain to plasma in rat at 10 mg/kg, ip after 6 hrs; format: ADME, organism-based; design: dose 10 mg/kg, route intraperitoneal; settings: read-out: BPR
[8] = Terminal half life in rat at 1 mg/kg, iv; format: ADME, organism-based; design: dose 1 mg/kg, route intravenous; settings: in vivo, read-out: beta t1/2 (converted)
[9] = target: T1, Histamine H3 receptor; assay: Inverse agonist activity at human histamine H3 receptor by [35S]GTPgammaS binding assay; format: functional
[10] = target: Voltage-gated inwardly rectifying potassium channel KCNH2 (Homo sapiens, UniProt Q12809); assay: Inhibition of human ERG channel by patch clamp technique
[11] = test system: Rattus norvegicus; assay: Oral bioavailability in rat at 5 mg/kg; format: ADME, organism-based; settings: in vivo
[12] = test system: Rattus norvegicus; assay: AUC in rat at 5 mg/kg, po; format: ADME, organism-based, Plasma; design: dose 5 mg/kg, route oral; settings: in vivo
[13] = Half life in monkey liver microsomes; format: ADME, Macaca mulatta, Microsome; settings: rhesus monkey
[14] = Cmax in rat at 5 mg/kg, po; format: ADME, organism-based; design: dose 5 mg/kg, route oral; settings: in vivo
[15] = target: Sodium-dependent dopamine transporter (Homo sapiens) (UniProt Q01959); assay: Inhibition of dopamine transporter (unknown origin) at 10 uM
[16] = Half life in human liver microsomes; format: ADME
[17] = target: Cytochrome P450 2D6 (Homo sapiens, UniProt P10635); assay: Inhibition of CYP2D6 (unknown origin); format: ADME
[18] = target: T2, Cytochrome P450 1A2 (Homo sapiens, UniProt P05177); assay: Inhibition of CYP1A2 (unknown origin); format: ADME
T2 sequence (P05177 whole entry): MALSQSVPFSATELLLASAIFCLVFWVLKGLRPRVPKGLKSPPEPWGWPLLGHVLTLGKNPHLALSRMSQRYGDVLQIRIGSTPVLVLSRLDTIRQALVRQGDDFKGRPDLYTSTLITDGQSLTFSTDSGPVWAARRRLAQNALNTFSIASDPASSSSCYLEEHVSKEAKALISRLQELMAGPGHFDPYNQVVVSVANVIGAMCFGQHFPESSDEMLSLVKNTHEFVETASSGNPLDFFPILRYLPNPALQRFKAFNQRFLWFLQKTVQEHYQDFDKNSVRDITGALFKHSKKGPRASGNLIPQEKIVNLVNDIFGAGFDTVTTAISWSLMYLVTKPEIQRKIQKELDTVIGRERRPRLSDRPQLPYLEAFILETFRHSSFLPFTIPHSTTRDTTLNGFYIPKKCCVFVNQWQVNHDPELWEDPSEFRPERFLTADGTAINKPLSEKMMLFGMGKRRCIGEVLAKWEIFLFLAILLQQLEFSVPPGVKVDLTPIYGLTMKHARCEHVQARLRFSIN

[19] = Half life in mouse liver microsomes; format: ADME, Microsome
[20] = Volume of distribution at steady state in rat at 1 mg/kg, iv; format: ADME, organism-based; design: dose 1 mg/kg, route intravenous; settings: in vivo, read-out: Vdss
[21] = target: Histamine H4 receptor (Homo sapiens) (UniProt Q9H3N8); assay: Inhibition of human histamine H4 receptor at 10 uM
[22] = target: Cytochrome P450 3A4 (Homo sapiens, UniProt P08684); assay: Inhibition of CYP3A4 (unknown origin); format: ADME
[23] = Half life in rat liver microsomes; format: ADME
[24] = target: Histamine H1 receptor (Homo sapiens) (UniProt P35367); assay: Inhibition of human histamine H1 receptor at 10 uM
[25] = target: Cytochrome P450 2C19 (Homo sapiens, UniProt P33261); assay: Inhibition of CYP2C19 (unknown origin); format: ADME
[26] = Half life in dog liver microsomes; format: ADME, Canis lupus familiaris
[27] = target: Cytochrome P450 2C9 (Homo sapiens, UniProt P11712); assay: Inhibition of CYP2C9 (unknown origin); format: ADME
[28] = Metabolic stability in mouse liver microsomes; format: ADME, Microsome
[29] = test system: Liver microsome; assay: Metabolic stability in human liver microsomes; format: ADME
[30] = test system: Liver microsome; assay: Metabolic stability in rat liver microsomes; format: ADME
[31] = test system: Liver microsome; assay: Metabolic stability in dog liver microsomes; format: ADME, Canis lupus familiaris

T1 sequence (Q9Y5N1 whole entry): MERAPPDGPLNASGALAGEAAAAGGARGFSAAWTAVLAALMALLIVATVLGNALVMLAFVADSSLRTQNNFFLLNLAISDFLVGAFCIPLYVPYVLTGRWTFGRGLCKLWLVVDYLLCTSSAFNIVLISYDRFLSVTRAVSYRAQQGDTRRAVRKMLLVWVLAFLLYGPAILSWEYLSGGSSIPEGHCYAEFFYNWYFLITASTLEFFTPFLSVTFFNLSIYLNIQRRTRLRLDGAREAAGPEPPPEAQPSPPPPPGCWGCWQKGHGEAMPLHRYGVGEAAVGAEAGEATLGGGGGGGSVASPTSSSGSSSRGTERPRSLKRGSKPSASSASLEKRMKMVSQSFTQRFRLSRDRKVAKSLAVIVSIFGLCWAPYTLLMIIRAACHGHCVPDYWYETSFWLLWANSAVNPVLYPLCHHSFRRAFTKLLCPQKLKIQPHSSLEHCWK
Chain of Histamine H3 receptor (Rattus norvegicus, UniProt Q9QYN8) (Q9QYN8 whole entry): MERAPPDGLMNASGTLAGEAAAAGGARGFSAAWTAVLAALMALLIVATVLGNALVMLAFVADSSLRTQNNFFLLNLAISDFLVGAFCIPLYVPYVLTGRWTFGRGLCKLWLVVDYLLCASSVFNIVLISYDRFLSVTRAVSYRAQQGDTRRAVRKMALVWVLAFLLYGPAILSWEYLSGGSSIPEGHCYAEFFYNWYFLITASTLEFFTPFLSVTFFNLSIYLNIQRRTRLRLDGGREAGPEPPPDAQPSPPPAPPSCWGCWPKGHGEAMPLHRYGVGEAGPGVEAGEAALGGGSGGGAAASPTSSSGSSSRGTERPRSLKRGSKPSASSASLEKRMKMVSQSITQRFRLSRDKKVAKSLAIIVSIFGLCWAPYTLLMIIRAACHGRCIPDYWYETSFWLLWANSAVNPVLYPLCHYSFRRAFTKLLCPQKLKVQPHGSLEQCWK
Chain of Cytochrome P450 2C9 (P11712 whole entry): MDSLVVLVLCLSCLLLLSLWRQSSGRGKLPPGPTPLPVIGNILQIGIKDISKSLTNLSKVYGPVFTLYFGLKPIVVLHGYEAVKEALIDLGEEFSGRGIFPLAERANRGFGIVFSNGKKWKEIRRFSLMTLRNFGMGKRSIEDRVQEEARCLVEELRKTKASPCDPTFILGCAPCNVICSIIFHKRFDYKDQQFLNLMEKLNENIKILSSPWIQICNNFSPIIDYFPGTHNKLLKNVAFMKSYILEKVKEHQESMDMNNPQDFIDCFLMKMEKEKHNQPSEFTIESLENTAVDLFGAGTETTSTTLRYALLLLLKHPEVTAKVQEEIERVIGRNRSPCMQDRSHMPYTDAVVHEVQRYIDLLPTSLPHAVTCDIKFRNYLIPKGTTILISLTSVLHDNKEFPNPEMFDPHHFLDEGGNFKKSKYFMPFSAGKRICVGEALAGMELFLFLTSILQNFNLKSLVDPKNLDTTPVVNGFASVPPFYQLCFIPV
Chain of Cytochrome P450 3A4 (P08684 whole entry): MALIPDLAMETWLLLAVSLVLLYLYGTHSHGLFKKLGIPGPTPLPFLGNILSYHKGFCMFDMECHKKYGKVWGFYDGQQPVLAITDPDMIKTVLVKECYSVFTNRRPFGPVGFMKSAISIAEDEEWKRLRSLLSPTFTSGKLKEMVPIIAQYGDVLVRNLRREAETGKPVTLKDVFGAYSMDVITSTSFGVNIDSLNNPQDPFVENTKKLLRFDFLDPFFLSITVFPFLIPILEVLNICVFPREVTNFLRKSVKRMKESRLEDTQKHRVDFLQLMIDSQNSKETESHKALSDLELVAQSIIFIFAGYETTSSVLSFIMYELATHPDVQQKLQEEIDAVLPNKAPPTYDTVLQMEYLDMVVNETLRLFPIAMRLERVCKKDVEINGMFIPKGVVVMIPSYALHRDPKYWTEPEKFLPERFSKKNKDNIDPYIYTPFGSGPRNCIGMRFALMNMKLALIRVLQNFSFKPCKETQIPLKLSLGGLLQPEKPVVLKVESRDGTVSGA
Chain of Cytochrome P450 2C19 (P33261 whole entry): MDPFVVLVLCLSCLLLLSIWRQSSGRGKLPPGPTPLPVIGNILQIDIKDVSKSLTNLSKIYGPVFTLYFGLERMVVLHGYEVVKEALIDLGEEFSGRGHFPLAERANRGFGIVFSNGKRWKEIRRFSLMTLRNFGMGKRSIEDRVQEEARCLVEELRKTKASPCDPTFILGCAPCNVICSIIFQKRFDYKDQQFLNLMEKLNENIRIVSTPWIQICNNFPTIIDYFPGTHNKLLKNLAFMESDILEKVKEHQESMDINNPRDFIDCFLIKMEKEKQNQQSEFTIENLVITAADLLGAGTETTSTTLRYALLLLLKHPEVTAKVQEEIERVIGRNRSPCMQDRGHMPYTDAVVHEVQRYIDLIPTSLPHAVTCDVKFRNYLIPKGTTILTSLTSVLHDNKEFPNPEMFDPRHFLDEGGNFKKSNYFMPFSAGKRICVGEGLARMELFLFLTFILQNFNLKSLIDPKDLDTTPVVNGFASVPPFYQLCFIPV
Chain of Cytochrome P450 2D6 (P10635 whole entry): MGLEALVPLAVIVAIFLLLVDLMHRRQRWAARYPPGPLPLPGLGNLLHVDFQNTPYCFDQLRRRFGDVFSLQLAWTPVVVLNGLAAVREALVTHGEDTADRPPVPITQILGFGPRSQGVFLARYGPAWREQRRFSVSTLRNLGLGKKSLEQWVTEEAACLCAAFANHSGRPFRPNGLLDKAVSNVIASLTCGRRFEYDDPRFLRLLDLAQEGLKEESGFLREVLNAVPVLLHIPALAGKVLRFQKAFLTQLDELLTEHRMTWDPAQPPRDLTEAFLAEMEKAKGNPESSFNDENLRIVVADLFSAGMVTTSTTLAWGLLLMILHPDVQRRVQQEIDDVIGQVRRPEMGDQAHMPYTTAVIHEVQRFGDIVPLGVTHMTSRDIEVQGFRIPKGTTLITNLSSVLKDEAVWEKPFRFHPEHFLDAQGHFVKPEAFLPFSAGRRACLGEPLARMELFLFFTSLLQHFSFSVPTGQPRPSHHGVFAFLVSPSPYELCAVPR
Chain of Sodium-dependent dopamine transporter (Homo sapiens) (Q01959 whole entry): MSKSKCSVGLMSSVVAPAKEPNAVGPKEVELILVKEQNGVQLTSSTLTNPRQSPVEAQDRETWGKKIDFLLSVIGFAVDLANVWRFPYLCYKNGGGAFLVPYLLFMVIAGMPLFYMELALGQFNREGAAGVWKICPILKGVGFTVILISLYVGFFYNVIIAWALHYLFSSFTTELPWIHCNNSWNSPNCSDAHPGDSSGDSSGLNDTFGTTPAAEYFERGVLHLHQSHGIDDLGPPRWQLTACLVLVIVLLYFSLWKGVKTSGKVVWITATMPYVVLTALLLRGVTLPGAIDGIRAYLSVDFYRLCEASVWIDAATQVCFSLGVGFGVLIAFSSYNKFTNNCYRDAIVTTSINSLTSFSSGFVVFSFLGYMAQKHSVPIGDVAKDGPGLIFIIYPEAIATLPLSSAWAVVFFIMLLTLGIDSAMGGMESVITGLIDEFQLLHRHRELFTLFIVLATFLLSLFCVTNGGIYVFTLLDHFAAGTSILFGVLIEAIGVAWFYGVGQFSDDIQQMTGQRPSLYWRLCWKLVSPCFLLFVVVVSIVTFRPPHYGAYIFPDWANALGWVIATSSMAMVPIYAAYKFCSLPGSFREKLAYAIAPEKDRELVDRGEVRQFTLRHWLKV
Chain of Histamine H2 receptor (Homo sapiens) (P25021 whole entry): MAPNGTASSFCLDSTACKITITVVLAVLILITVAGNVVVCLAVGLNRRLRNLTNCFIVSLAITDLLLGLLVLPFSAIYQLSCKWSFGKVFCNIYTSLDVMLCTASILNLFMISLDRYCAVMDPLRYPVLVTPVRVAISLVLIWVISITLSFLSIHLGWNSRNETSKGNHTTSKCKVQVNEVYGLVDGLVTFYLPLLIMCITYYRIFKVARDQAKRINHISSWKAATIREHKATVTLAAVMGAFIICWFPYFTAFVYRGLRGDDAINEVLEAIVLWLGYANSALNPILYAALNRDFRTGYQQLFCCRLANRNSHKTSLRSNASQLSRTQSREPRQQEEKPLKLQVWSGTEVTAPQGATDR
Chain of Histamine H4 receptor (Homo sapiens) (Q9H3N8 whole entry): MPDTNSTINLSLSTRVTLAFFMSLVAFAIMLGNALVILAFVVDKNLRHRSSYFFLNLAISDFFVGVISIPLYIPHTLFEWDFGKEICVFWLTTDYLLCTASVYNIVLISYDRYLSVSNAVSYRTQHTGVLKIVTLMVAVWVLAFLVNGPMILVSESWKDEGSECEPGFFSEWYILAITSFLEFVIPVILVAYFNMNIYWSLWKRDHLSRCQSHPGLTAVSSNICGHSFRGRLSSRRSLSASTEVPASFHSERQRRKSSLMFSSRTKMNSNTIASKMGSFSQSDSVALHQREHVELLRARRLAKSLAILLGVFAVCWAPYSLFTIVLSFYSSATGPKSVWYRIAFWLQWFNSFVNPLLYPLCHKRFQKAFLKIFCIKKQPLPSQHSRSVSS
Chain of Histamine H1 receptor (Homo sapiens) (P35367 whole entry): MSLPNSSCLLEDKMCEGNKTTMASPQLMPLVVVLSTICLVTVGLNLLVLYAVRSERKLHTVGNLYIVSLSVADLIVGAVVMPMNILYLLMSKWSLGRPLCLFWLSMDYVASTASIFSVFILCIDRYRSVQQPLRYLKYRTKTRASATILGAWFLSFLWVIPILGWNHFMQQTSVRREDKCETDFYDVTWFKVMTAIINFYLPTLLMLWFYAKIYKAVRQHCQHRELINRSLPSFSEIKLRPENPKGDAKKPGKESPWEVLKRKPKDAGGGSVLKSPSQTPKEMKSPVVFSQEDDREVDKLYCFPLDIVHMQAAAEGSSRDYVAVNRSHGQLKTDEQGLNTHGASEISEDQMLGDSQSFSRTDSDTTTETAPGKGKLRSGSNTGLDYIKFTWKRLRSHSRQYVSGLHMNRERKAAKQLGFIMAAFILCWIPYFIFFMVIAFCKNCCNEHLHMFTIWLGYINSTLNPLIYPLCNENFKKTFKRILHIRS

CN1N=C(c2ccc(OC3CCN(C4CCCC4)CC3)cc2)C2CC2C1=O (racemic)
Selectivity ratio [1]: > 1000
Ki [2]: 5.7 nM
Selectivity ratio [3]: > 1000
Ki [4]: 3.6 nM
Selectivity ratio [5]: > 1000

O=C1NN=C(c2ccc(OC3CCN(C4CCC4)CC3)cc2)[C@@H]2C[C@H]12
inhibition [6]: < 10%
Kp at 6 h [7]: 5
half-life [8]: 96 min
EC50 [9]: 0.5 nM
IC50 [10]: 6 µM
F [11]: 66%
AUC [12]: 5144 ng·h/mL
half-life [13]: > 40 min
Ki [2]: 12 nM
Cmax [14]: 649 ng/mL
inhibition [15]: 63%
half-life [16]: > 40 min
IC50 [17]: > 30 µM
IC50 [18]: > 30 µM
half-life [19]: > 40 min
Vd [20]: 3 L/kg
Ki [4]: 6.8 nM
inhibition [21]: < 10%
IC50 [22]: > 30 µM
half-life [23]: > 40 min
inhibition [24]: < 10%
IC50 [25]: > 30 µM
half-life [26]: > 40 min
IC50 [27]: > 30 µM

O=C1NN=C(c2ccc(OC3CCN(C4CCCC4)CC3)cc2)C2CC12 (racemic)
Selectivity ratio [1]: > 1000
Stability [28]: Stable
Ki [2]: 8.1 nM
Stability [29]: Stable
inhibition (INH) ([17]; human): Not Active
inhibition (INH) ([18]; human): Not Active
Selectivity ratio [3]: > 1000
Ki [4]: 3.7 nM
inhibition (INH) ([22]; human): Not Active
Stability [30]: Stable
Selectivity ratio [5]: > 1000
Stability [31]: Stable
inhibition (INH) ([25]; human): Not Active
inhibition (INH) ([27]; human): Not Active

CCN1CCC(Oc2ccc(C3=NNC(=O)C4CC34)cc2)CC1 (racemic)
Ki [2]: 228 nM
Ki [4]: 173 nM

O=C1NN=C(c2ccc(OC3CCN(C4CCC4)CC3)cc2)C2CC12 (racemic)
Ki [2]: 8.4 nM
Ki [4]: 4.7 nM

CC(C)N1N=C(c2ccc(OC3CCN(C4CCC4)CC3)cc2)C2CC2C1=O (racemic)
Selectivity ratio [1]: > 1000
Ki [2]: 5.6 nM
Selectivity ratio [3]: > 1000
Ki [4]: 6.9 nM
Selectivity ratio [5]: > 1000
